Measurements from patent US20250066350A1, “AROMATIC HETEROCYCLE-SUBSTITUTED COMPOUNDS, AND PREPARATION METHOD THEREFOR AND USE THEREOF” (Innovstone Therapeutics Limited, priority 2021, published 2025).
pIC50: −log10 of the molar value.

The compounds below were run against ATR enzyme (Homo sapiens (Human), UniProt Q13535) (assay: Inhibitory effect on ATR enzyme (HTRF, phospho-P53)). Conditions: 90 minutes incubation, 150 nM ATP final; read-out: IC50 for ATR enzyme inhibition.
Type: biochemical
Method: Test Example 1. Inhibitory Effect of Compounds of the Present Invention on ATR Enzyme
The following method is used to determine the inhibitory effect of the compounds of the present invention on the ATR enzyme. The experimental method is briefly described as follows:
1. ATR enzyme (Eurofins Pharma Discovery Services, 14-953M)
2. GST-tagged P53 protein (Eurofins Pharma Discovery Services, 14-952M)
15 nM ATR enzyme, 80 nM P53 protein, 300 nM ATP (the final concentrations were 40 nM and 150 nM, respectively), and small molecule compounds of various concentrations (the final concentrations (nM) of the ten points were 2985.0, 895.5, 298.5, 110.56, 33.17, 11.06, 4.09, 1.23, 0.41 and 0.15, respectively, and the final dimethyl sulfoxide concentration was 0.498%) were mixed and incubated at room temperature for 90 minutes. 10 μL of 2× cocktail buffer was added to the mixture of ATR, compound and substrate in the assay plate (anti-phospho-p53-Eu and anti-GST-d2 were diluted in the assay buffer). The resulting mixture was centrifuged at 1000 rpm for 30 seconds, and incubated overnight at 4° C. in the dark (a total of 20 μl in each well). The FRET signal (endpoint) was measured in the Envision instrument (HTRF 665/612 ratio was calculated at 665 nm emission and 612 nm emission). Data were processed using GraphPad software.
The inhibitory activity of the compounds of the present invention on the ATR enzyme can be determined by the test described above, and the measured IC50 values are shown in Table 1.

Chain of ATR enzyme (Q13535 whole entry): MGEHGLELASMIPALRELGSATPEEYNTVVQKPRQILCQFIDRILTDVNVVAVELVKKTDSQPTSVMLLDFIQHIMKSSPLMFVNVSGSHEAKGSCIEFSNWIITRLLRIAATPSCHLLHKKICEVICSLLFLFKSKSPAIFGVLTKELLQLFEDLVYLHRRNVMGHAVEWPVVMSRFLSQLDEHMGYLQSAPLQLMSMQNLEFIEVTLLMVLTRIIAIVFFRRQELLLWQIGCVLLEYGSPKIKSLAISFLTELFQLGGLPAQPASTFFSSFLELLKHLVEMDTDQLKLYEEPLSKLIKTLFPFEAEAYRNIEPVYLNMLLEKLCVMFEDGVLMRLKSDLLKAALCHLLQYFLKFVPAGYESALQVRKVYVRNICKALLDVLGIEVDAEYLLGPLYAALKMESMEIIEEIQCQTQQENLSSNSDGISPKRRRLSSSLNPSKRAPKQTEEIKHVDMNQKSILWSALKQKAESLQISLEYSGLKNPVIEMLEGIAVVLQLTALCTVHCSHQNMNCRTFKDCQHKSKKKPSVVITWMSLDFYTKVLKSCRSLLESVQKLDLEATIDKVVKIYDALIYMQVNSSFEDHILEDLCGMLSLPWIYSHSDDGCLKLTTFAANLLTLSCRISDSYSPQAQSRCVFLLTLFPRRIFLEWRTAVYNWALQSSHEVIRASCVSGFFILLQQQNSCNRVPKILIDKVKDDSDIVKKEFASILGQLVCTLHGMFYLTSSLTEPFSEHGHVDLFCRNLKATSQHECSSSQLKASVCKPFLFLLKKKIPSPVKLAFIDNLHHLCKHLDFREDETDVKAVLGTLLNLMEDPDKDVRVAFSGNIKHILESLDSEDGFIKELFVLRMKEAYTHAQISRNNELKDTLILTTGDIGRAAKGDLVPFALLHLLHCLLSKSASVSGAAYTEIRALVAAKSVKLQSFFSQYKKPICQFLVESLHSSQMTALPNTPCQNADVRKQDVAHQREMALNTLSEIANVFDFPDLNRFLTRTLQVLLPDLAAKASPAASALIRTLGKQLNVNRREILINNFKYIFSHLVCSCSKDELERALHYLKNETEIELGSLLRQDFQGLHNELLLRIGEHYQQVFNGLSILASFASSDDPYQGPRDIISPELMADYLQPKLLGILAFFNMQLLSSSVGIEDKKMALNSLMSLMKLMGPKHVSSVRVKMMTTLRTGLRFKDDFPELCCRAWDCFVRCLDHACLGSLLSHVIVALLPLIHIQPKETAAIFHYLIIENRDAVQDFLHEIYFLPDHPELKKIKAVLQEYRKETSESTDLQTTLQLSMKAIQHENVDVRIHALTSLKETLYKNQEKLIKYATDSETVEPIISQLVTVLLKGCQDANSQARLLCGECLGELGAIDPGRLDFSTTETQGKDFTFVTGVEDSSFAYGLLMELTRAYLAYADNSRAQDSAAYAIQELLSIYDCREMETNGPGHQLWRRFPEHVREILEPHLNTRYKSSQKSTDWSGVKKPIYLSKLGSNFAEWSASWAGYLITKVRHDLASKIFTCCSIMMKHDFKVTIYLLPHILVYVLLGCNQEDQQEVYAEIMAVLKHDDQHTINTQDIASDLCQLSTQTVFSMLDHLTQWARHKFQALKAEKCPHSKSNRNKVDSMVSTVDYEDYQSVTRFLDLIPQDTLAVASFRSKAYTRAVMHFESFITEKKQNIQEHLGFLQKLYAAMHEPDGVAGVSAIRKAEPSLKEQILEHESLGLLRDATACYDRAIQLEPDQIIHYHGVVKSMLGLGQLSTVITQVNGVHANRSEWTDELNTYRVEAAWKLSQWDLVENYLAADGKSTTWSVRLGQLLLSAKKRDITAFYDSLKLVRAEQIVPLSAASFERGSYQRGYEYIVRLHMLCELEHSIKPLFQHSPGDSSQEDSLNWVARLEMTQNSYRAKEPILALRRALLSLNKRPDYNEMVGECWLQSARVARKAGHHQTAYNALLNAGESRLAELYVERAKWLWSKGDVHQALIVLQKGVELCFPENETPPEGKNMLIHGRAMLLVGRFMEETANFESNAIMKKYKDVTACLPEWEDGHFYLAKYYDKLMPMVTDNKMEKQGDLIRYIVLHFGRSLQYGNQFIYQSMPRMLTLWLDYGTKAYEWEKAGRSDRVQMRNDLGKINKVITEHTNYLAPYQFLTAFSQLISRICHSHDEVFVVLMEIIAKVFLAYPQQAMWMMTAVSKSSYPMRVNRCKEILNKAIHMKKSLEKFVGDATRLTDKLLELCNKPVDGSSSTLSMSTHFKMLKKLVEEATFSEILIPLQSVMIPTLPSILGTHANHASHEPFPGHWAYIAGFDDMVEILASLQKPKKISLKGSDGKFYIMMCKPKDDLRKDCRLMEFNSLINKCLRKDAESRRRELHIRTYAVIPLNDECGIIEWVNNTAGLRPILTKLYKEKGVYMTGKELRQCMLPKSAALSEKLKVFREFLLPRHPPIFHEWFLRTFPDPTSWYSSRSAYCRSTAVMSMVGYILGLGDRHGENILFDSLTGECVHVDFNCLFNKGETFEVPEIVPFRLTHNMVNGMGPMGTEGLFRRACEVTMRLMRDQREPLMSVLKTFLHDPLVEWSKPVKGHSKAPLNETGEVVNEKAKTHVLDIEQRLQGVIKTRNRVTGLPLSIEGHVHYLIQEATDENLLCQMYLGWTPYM
Chain of ATR enzyme (Q8WXE1 whole entry partner): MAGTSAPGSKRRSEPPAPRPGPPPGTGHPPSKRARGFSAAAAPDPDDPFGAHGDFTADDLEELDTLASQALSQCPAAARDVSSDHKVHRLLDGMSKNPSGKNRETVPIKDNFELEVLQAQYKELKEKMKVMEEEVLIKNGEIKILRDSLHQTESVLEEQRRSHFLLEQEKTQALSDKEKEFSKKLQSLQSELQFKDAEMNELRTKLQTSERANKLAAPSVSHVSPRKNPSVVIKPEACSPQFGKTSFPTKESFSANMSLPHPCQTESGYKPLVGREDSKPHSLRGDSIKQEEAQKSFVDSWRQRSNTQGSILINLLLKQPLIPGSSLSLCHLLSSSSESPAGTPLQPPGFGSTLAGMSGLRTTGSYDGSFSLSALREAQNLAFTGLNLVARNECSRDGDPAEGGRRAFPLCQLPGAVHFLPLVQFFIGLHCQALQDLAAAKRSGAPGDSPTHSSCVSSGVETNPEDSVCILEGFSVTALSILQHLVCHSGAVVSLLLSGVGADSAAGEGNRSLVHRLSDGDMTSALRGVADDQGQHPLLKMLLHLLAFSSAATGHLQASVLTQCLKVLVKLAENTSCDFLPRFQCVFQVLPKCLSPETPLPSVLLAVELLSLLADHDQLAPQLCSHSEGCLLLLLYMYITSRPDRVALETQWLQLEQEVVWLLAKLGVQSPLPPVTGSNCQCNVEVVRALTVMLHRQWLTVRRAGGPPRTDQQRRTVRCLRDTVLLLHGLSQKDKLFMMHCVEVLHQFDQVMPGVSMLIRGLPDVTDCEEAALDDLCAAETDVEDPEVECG

Row | SMILES | pIC50
1 | C[C@@H]1COCCN1c1cc(C#CC2(O)CCN(c3cccc(F)c3)CC2)c2cnn(-c3ccn[nH]3)c2n1 [Compound 12, (R)-1-(3-fluorophenyl)-4-((6-(3-methylmorpholinyl)-1-(1H-pyrazolyl-5-yl)-1H-pyrazolyl[3,4-b]pyridin-4-yl)ethynyl)piperidin-4-ol] | 7.30 to 8.00
2 | C[C@@H]1COCCN1c1cc(C#CC2(O)CCC3(CCOCC3)CC2)c2cnn(-c3ccn[nH]3)c2n1 [Compound 14, (R)-9-((6-(3-methylmorpholinyl)-1-(1H-pyrazol-5-yl)-1H-pyrazole[3,4-b]pyridin-4-yl)ethynyl)-3-oxaspiro[5.5]undecan-9-ol] | 7.30 to 8.00
3 | C#Cc1cc(N2CCOC[C@H]2C)nc2c1cnn2-c1cc[nH]n1 [Example 17] | 7.30 to 8.00
4 | C[C@@H]1COCCN1c1cc(C#CCN(C)C)c2cnn(-c3cc[nH]n3)c2n1 [Example 18, (R)-N, N-Dimethyl-3-(6-(3-methylmorpholine)-1-(1H-pyrazol-3-yl)-1H-pyrazoline[3,4-b]pyridin-4-yl)propyl-2-yn-1-amine] | 7.30 to 8.00
5 | C[C@@H]1COCCN1c1cc(-c2ccc(N3C(=O)CCCC3CO)cc2)c2cnn(-c3cc[nH]n3)c2n1 (some centres unmarked) [Example 60] | ≥ 8.00
6 | C[C@@H]1COCCN1c1cc(C#Cc2ccnc3[nH]ccc23)c2cnn(-c3cc[nH]n3)c2n1 [Example 77] | 7.30 to 8.00
7 | C[C@@H]1COCCN1c1cc(C#Cc2c[nH]cn2)c2cnn(-c3cc[nH]n3)c2n1 [Example 78] | ≥ 8.00
8 | CC(=O)N1CCC(C#Cc2cc(N3CCOC[C@H]3C)nc3c2cnn3-c2cc[nH]n2)C1 (some centres unmarked) [Example 80] | 7.30 to 8.00
9 | C[C@@H]1COCCN1c1cc(C#CC2(O)COC2)c2cnn(-c3cc[nH]n3)c2n1 [Example 84] | ≥ 8.00
10 | C[C@@H]1COCCN1c1cc(C#CC(=O)N2CC(O)C2)c2cnn(-c3cc[nH]n3)c2n1 [Example 86] | 7.30 to 8.00
11 | C[C@@H]1COCCN1c1cc(-c2ccc(NC(=O)CCO)cc2)c2cnn(-c3cc[nH]n3)c2n1 [Example 152] | ≥ 8.00
12 | C[C@@H]1COCCN1c1cc(-c2ccc(NC(=O)C3CNC3)cc2)c2cnn(-c3cc[nH]n3)c2n1 [Example 156] | ≥ 8.00
13 | Cc1cc(-c2cc(N3CCOC[C@H]3C)nc3c2cnn3-c2ccn[nH]2)cc(C)c1N(C)C(=O)c1ccncc1 [Example 184] | ≥ 8.00
14 | C[C@@H]1COCCN1c1cc(-c2ccc(N(C)C(=O)N3CCCC3)cc2F)c2cnn(-c3cc[nH]n3)c2n1 [Example 192] | ≥ 8.00
15 | C#CC1CC=C(c2cc(N3CCOC[C@H]3C)nc3c2cnn3-c2cc[nH]n2)CC1 (some centres unmarked) [Example 201] | ≥ 8.00
16 | C#CC1CCC(c2cc(N3CCOC[C@H]3C)nc3c2cnn3-c2ccn[nH]2)CC1 (stereo partly drawn) [Example 202, (R)-4-(4-(4-ethynylcyclohexyl)-1-(1H-pyrazol-5-yl)-1H-pyrazolo[3,4-b]pyridin-6-yl)-3-methylmorpholine] | ≥ 8.00
17 | C[C@@H]1COCCN1c1cc(-c2ccc(N3CC4(CCN(Cc5ccccc5)C4)CC3=O)cc2)c2cnn(-c3cc[nH]n3)c2n1 (some centres unmarked) [Example 203] | ≥ 8.00
18 | C[C@@H]1COCCN1c1cc(C#CCN2CC3(CNC3)C2)c2cnn(-c3cc[nH]n3)c2n1 [Example 205] | 7.30 to 8.00
19 | C[C@@H]1COCCN1c1cc(C#CC2CCCOC2)c2cnn(-c3ccn[nH]3)c2n1 (some centres unmarked) [Example 210] | ≥ 8.00

Row | SMILES | pIC50
20 | C[C@@H]1COCCN1c1cc(-c2ccc(N3CCCC3=O)cc2)c2cnn(-c3cc[nH]n3)c2n1 [Example 212] | ≥ 8.00
21 | CC(=O)Nc1ccccc1-c1cc(N2CCOC[C@H]2C)nc2c1cnn2-c1cc[nH]n1 [Example 220] | 7.30 to 8.00
22 | C[C@@H]1COCCN1c1cc(-c2ccc(N(C)C(=O)N3CCCC3)cc2)c2cnn(-c3cc[nH]n3)c2n1 [Example 223] | ≥ 8.00
23 | C[C@@H]1COCCN1c1cc(-c2ccc3c(c2)CCCN3C(=O)c2cccnc2)c2cnn(-c3cc[nH]n3)c2n1 [Example 225] | ≥ 8.00
24 | C[C@@H]1COCCN1c1cc(-c2ccc(N(C)C(=O)N3CCCC3)nc2)c2cnn(-c3cc[nH]n3)c2n1 [Example 227] | 7.30 to 8.00
25 | C[C@@H]1COCCN1c1cc(-c2ccc(NC(=O)N3CCCCC3)cc2)c2cnn(-c3cc[nH]n3)c2n1 [Example 229] | ≥ 8.00
26 | C[C@@H]1COCCN1c1cc(-c2ccc(N(C)C(=O)N3CCCCC3)cc2)c2cnn(-c3cc[nH]n3)c2n1 [Example 230] | 7.30 to 8.00
27 | C[C@@H]1COCCN1c1cc(-c2ccc(NC(=O)NC3CC4CCC(C3)N4)cc2)c2cnn(-c3cc[nH]n3)c2n1 (some centres unmarked) [Example 231] | ≥ 8.00
28 | C[C@@H]1COCCN1c1cc(-c2ccc(NC(=O)C34CC5CC(CC(C5)C3)C4)cc2)c2cnn(-c3cc[nH]n3)c2n1 [Example 232] | 7.30 to 8.00
29 | COc1cc(-c2cc(N3CCOC[C@H]3C)nc3c2cnn3-c2cc[nH]n2)ncc1NC(=O)N1CCCC1 [Example 247] | 7.30 to 8.00
30 | COc1cc(NC(=O)N2CCCC2)ncc1-c1cc(N2CCOC[C@H]2C)nc2c1cnn2-c1cc[nH]n1 [Example 248] | 7.30 to 8.00
31 | C[C@@H]1COCCN1c1cc(-c2ccc(NC(=O)N3CCCC3)cn2)c2cnn(-c3cc[nH]n3)c2n1 [Example 249] | ≥ 8.00
32 | C[C@@H]1COCCN1c1cc(-c2cc(NC(=O)C3CC3)[nH]n2)c2cnn(-c3cc[nH]n3)c2n1 [Example 253] | 7.30 to 8.00
33 | C[C@@H]1COCCN1c1cc(N2CC(c3ccnn3C)C2)c2cnn(-c3cc[nH]n3)c2n1 [Example 266] | 7.30 to 8.00
34 | C[C@@H]1COCCN1c1cc(N2CC(c3ccn(C)n3)C2)c2cnn(-c3cc[nH]n3)c2n1 [Example 267] | 7.30 to 8.00
35 | C[C@@H]1COCCN1c1cc(C2CN(C(=O)NC3CC3)C2)c2cnn(-c3cc[nH]n3)c2n1 [Example 268] | 7.30 to 8.00
36 | C[C@@H]1COCCN1c1cc(C2CN(c3ccnn3C)C2)c2cnn(-c3cc[nH]n3)c2n1 [Example 269] | ≥ 8.00
37 | C#CC1CCC(O)(c2cc(N3CCOC[C@H]3C)nc3c2cnn3-c2cc[nH]n2)C1 (some centres unmarked) [Example 270] | ≥ 8.00

What follows are compounds tested on SNU-601 cells (assay: SNU-601 cell proliferation experiment (CellTiter-Glo, intracellular ATP)). Conditions: 120 h; SNU-601 human gastric cancer cells, 5 days; read-out: IC50 for inhibition of SNU-601 cell proliferation.
Type: cell-based
Method: The following method is used to evaluate the inhibitory effect of the compounds of the present disclosure on SNU-601 cell proliferation according to the IC50 values by means of detecting the intracellular ATP content. The experimental method is briefly described as follows:
1. SNU-601, human gastric cancer tumor cells (Co-bioer, CBP60507)
SNU-601 cells were cultured in RPMI 1640 medium containing 10% FBS and passaged 2 to 3 times a week at a split ratio of 1:5 or 1:10. During passage, the cells were trypsinized and transferred to a centrifuge tube. The tube was centrifuged at 1000 rpm for 5 minutes, the supernatant medium was discarded, and fresh medium was added to resuspend the cells. 195 μL of cell suspension at a density of 5.128×10^3 cells/mL was added to a 96-well cell culture plate, and 200 μL of complete medium only was added to the periphery wells of the 96-well plate. The culture plate was incubated in an incubator for 24 hours (37° C., 5% CO2).
The sample to be tested was diluted to 2 mM with DMSO, diluted 3-fold serially to 10 concentrations. Blank and control wells were set. 10 μL of the solution containing the compound to be tested prepared in gradient concentrations was added to 50 μL of fresh medium. 5 μL of the above culture medium solution containing the compound was added to the culture plate. The culture plate was incubated in an incubator for 5 days (37° C., 5% CO2). 50 μL of CellTiter-Glo reagent was added to each well of the 96-well cell culture plate after discarding 100 μL/well, and the plate was shaken at room temperature in the dark for 10 min. The chemiluminescent signal values were read in PHERAstar, and data were processed using GraphPad software.
The inhibitory effect of the compounds of the present invention on SNU-601 cell proliferation can be determined by the test described above, and the measured IC50 values are shown in Table 3.

Row | SMILES | pIC50
38 | C[C@@H]1COCCN1c1cc(-c2ccc(N3CC4CCC(O4)C3=O)cc2)c2cnn(-c3cc[nH]n3)c2n1 (some centres unmarked) [Example 65] | 7.00 to 8.00
39 | CCC(CC)C(=O)Nc1ccc(-c2cc(N3CCOC[C@H]3C)nc3c2cnn3-c2cc[nH]n2)cc1 [Example 151] | 7.00 to 8.00
40 | C[C@@H]1COCCN1c1cc(-c2ccc(N3CCCCCC3=O)cc2)c2cnn(-c3cc[nH]n3)c2n1 [Example 153] | 7.00 to 8.00
41 | C[C@@H]1COCCN1c1cc(-c2ccc(NC(=O)C3CCOCC3)cc2)c2cnn(-c3cc[nH]n3)c2n1 [Example 155] | 7.00 to 8.00
42 | C[C@@H]1COCCN1c1cc(-c2ccc(NC(=O)c3ccccc3)cc2)c2cnn(-c3cc[nH]n3)c2n1 [Example 163] | 7.00 to 8.00
43 | C[C@@H]1COCCN1c1cc(-c2ccc(NC(=O)c3ccncn3)cc2)c2cnn(-c3cc[nH]n3)c2n1 [Example 165] | 7.00 to 8.00
44 | C[C@@H]1COCCN1c1cc(-c2ccc(N3CCCCC3=O)nc2)c2cnn(-c3cc[nH]n3)c2n1 [Example 167] | 7.00 to 8.00
45 | C[C@@H]1COCCN1c1cc(-c2ccc(N3CCCCC3=O)c(C#N)c2)c2cnn(-c3cc[nH]n3)c2n1 [Example 169] | 7.00 to 8.00
46 | C[C@@H]1COCCN1c1cc(-c2ccc3c(c2)CCN3C(=O)c2ccncc2)c2cnn(-c3cc[nH]n3)c2n1 [Example 183] | 7.00 to 8.00

Same assay, conditions: SNU-601 human gastric cancer cells, 5 days; read-out: IC50 for inhibition of SNU-601 cell proliferation

Row | SMILES | pIC50
47 | C[C@@H]1COCCN1c1cc(C#CC2(C#N)CCCNC2)c2cnn(-c3cc[nH]n3)c2n1 (some centres unmarked) [Example 82] | 7.00 to 8.00
